Data taken from article PMC6364417, “Kinase inhibitor library screening identifies synergistic drug combinations effective in sensitive and resistant melanoma cells” (Journal of Experimental & Clinical Cancer Research : CR, 2019).

What was measured:
Assay in all cases: Kinase inhibitor library screening, PrestoBlue cell viability, 1 or 10 μM, 72 h
[1] = test system: IGR37 cells (parental); settings: for viability at 1 µM / viability at 10 µM: Homo sapiens, IGR-37, 72 h; for viability at 1 µM: read-out: cell viability, IGR37 Parental, 1μΜ; for viability at 10 µM: read-out: cell viability, IGR37 Parental, 10μΜ
[2] = test system: 501Mel-GP cells (Dabrafenib-resistant); settings: for viability at 1 µM / viability at 10 µM: Homo sapiens; for viability at 1 µM: read-out: cell viability, 501Mel GP, 1μΜ; for viability at 10 µM: read-out: cell viability, 501Mel GP, 10μΜ
[3] = test system: A375-XP cells (Vemurafenib-resistant); settings: for viability at 1 µM / viability at 10 µM: Homo sapiens, A-375, 72 h; for viability at 1 µM: read-out: cell viability, A375 XP, 1μΜ; for viability at 10 µM: read-out: cell viability, A375 XP, 10μΜ
[4] = test system: A375 cells (parental); settings: for viability at 1 µM / viability at 10 µM: Homo sapiens, A-375, 72 h; for viability at 1 µM: read-out: cell viability, A375 Parental, 1μΜ; for viability at 10 µM: read-out: cell viability, A375 Parental, 10μΜ
[5] = test system: IGR37-GP cells (Dabrafenib-resistant); settings: for viability at 1 µM / viability at 10 µM: Homo sapiens, IGR-37, 72 h; for viability at 1 µM: read-out: cell viability, IGR37 GP, 1μΜ; for viability at 10 µM: read-out: cell viability, IGR37 GP, 10μΜ
[6] = test system: A375-GP cells (Dabrafenib-resistant); settings: for viability at 1 µM / viability at 10 µM: Homo sapiens, A-375, 72 h; for viability at 1 µM: read-out: cell viability, A375 GP, 1μΜ; for viability at 10 µM: read-out: cell viability, A375 GP, 10μΜ
[7] = test system: 501Mel-XP cells (Vemurafenib-resistant); settings: for viability at 1 µM / viability at 10 µM: Homo sapiens; for viability at 1 µM: read-out: cell viability, 501Mel XP, 1μΜ; for viability at 10 µM: read-out: cell viability, 501Mel XP, 10μΜ
[8] = test system: IGR37-XP cells (Vemurafenib-resistant); settings: for viability at 1 µM / viability at 10 µM: Homo sapiens, IGR-37, 72 h; for viability at 1 µM: read-out: cell viability, IGR37 XP, 1μΜ; for viability at 10 µM: read-out: cell viability, IGR37 XP, 10μΜ
[9] = test system: 501Mel cells (parental); settings: for viability at 1 µM / viability at 10 µM: Homo sapiens; for viability at 1 µM: read-out: cell viability, 501Mel Parental, 1μΜ; for viability at 10 µM: read-out: cell viability, 501Mel Parental, 10μΜ
Summary of the method: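 Readout: PrestoBlue signal on a monochromator plate reader, given as percent viability relative to untreated controls. Parental and drug-resistant (Vemurafenib XP, Dabrafenib GP) sublines were tested; at least duplicates per line.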

COCC(=O)NC/C=C/c1ccc2ncnc(Nc3ccc(Oc4ccc(C)nc4)c(C)c3)c2c1 [CP-724714]
viability at 1 µM [1]: 101% | viability at 10 µM [1]: 98% | viability at 1 µM ([2]; 72 h): 109% | viability at 10 µM ([2]; 72 h): 87.4% | viability at 1 µM [3]: 109% | viability at 10 µM [3]: 103% | viability at 1 µM [4]: 101% | viability at 10 µM [4]: 90.2% | viability at 1 µM [5]: 91.8% | viability at 10 µM [5]: 86.1% | viability at 1 µM [6]: 103% | viability at 10 µM [6]: 95.4% | viability at 1 µM ([7]; 72 h): 101% | viability at 10 µM ([7]; 72 h): 77.8% | viability at 1 µM [8]: 89.5% | viability at 10 µM [8]: 52.3% | viability at 1 µM ([9]; 72 h): 105% | viability at 10 µM ([9]; 72 h): 102%

Cc1nc(N)sc1-c1ccnc(Nc2ccc(N3CCOCC3)cc2)n1 [CYC116]
cell viability (kinase inhibitor library screening) ([1]; IGR37 Parental, 1μΜ, 72 h): 94.2% | cell viability (kinase inhibitor library screening) ([1]; IGR37 Parental, 10μΜ, 72 h): 59.4% | cell viability (kinase inhibitor library screening) ([2]; 501Mel GP, 1μΜ, 72 h): 104.5% | cell viability (kinase inhibitor library screening) ([2]; 501Mel GP, 10μΜ, 72 h): 44.7% | cell viability (kinase inhibitor library screening) ([3]; A375 XP, 1μΜ, 72 h): 75.4% | cell viability (kinase inhibitor library screening) ([3]; A375 XP, 10μΜ, 72 h): 46.7% | cell viability (kinase inhibitor library screening) ([4]; A375 Parental, 10μΜ, 72 h): 33.9% | cell viability (kinase inhibitor library screening) ([4]; A375 Parental, 1μΜ, 72 h): 54.1% | cell viability (kinase inhibitor library screening) ([5]; IGR37 GP, 1μΜ, 72 h): 92.1% | cell viability (kinase inhibitor library screening) ([5]; IGR37 GP, 10μΜ, 72 h): 50.1% | cell viability (kinase inhibitor library screening) ([6]; A375 GP, 1μΜ, 72 h): 52.0% | cell viability (kinase inhibitor library screening) ([6]; A375 GP, 10μΜ, 72 h): 33.0% | cell viability (kinase inhibitor library screening) ([7]; 501Mel XP, 1μΜ, 72 h): 94.4% | cell viability (kinase inhibitor library screening) ([7]; 501Mel XP, 10μΜ, 72 h): 30.0% | cell viability (kinase inhibitor library screening) ([8]; IGR37 XP, 1μΜ, 72 h): 98.8% | cell viability (kinase inhibitor library screening) ([8]; IGR37 XP, 10μΜ, 72 h): 26.5% | cell viability (kinase inhibitor library screening) ([9]; 501Mel Parental, 1μΜ, 72 h): 99.4% | cell viability (kinase inhibitor library screening) ([9]; 501Mel Parental, 10μΜ, 72 h): 67.9%

COc1cc2c(Oc3ccc4[nH]c(C)cc4c3F)ncnc2cc1OCCCN1CCCC1 [Cediranib (AZD2171)]
cell viability (kinase inhibitor library screening) ([1]; IGR37 Parental, 1μΜ, in %): 94.9 | cell viability (kinase inhibitor library screening) ([1]; IGR37 Parental, 10μΜ, in %): 1.6 | cell viability (kinase inhibitor library screening) ([2]; 501Mel GP, 1μΜ, in %): 105.5 | cell viability (kinase inhibitor library screening) ([2]; 501Mel GP, 10μΜ, in %): 0.9 | cell viability (kinase inhibitor library screening) ([3]; A375 XP, 1μΜ, in %): 104.3 | cell viability (kinase inhibitor library screening) ([3]; A375 XP, 10μΜ, in %): 4.2 | cell viability (kinase inhibitor library screening) ([4]; A375 Parental, 1μΜ, in %): 105.9 | cell viability (kinase inhibitor library screening) ([4]; A375 Parental, 10μΜ, in %): 27.2 | cell viability (kinase inhibitor library screening) ([5]; IGR37 GP, 1μΜ, in %): 99.5 | cell viability (kinase inhibitor library screening) ([5]; IGR37 GP, 10μΜ, in %): 4.2 | cell viability (kinase inhibitor library screening) ([6]; A375 GP, 1μΜ, in %): 97.5 | cell viability (kinase inhibitor library screening) ([6]; A375 GP, 10μΜ, in %): 15.1 | cell viability (kinase inhibitor library screening) ([7]; 501Mel XP, 1μΜ, in %): 89.8 | cell viability (kinase inhibitor library screening) ([7]; 501Mel XP, 10μΜ, in %): -0.129 | cell viability (kinase inhibitor library screening) ([8]; IGR37 XP, 1μΜ, in %): 97.7 | cell viability (kinase inhibitor library screening) ([8]; IGR37 XP, 10μΜ, in %): 1.6 | cell viability (kinase inhibitor library screening) ([9]; 501Mel Parental, 10μΜ, in %): 1.2

CC1(COc2ccc3c(c2)ncn3-c2ccc3cccc(N4CCC(N)CC4)c3n2)COC1 [Crenolanib (CP-868596)]
Cell viability in kinase inhibitor library screening, IGR37 Parental, 1μΜ ([1]; IGR37 Parental, 1μΜ, 72 h, in %): 103.4 | Cell viability in kinase inhibitor library screening, IGR37 Parental, 10μΜ ([1]; IGR37 Parental, 10μΜ, 72 h, in %): 89.7 | Cell viability in kinase inhibitor library screening, 501Mel GP, 1μΜ ([2]; 501Mel GP, 1μΜ, 72 h, in %): 108.6 | Cell viability in kinase inhibitor library screening, 501Mel GP, 10μΜ ([2]; 501Mel GP, 10μΜ, 72 h, in %): 51.0 | Cell viability in kinase inhibitor library screening, A375 XP, 1μΜ ([3]; A375 XP, 1μΜ, 72 h): 108.4 | Cell viability in kinase inhibitor library screening, A375 XP, 10μΜ ([3]; A375 XP, 10μΜ, 72 h): 78.4 | Cell viability in kinase inhibitor library screening, A375 Parental, 10μΜ ([4]; A375 Parental, 10μΜ, 72 h): 69.9 | Cell viability in kinase inhibitor library screening, A375 Parental, 1μΜ ([4]; A375 Parental, 1μΜ, 72 h): 109.2 | Cell viability in kinase inhibitor library screening, IGR37 GP, 10μΜ ([5]; IGR37 GP, 10μΜ, 72 h): 84.5% | Cell viability in kinase inhibitor library screening, IGR37 GP, 1μΜ ([5]; IGR37 GP, 1μΜ, 72 h, in %): 104.5 | Cell viability in kinase inhibitor library screening, A375 GP, 10μΜ ([6]; A375 GP, 10μΜ, 72 h): 66.5 | Cell viability in kinase inhibitor library screening, 501Mel XP, 10μΜ ([7]; 501Mel XP, 10μΜ, 72 h, in %): 0.1 | Cell viability in kinase inhibitor library screening, IGR37 XP, 10μΜ ([8]; IGR37 XP, 10μΜ, 72 h): 30.9% | Cell viability in kinase inhibitor library screening, 501Mel Parental, 1μΜ ([9]; 501Mel Parental, 1μΜ, 72 h, in %): 112.4 | Cell viability in kinase inhibitor library screening, 501Mel Parental, 10μΜ ([9]; 501Mel Parental, 10μΜ, 72 h, in %): 12.0

C[C@@H](Oc1cc(-c2cnn(C3CCNCC3)c2)cnc1N)c1c(Cl)ccc(F)c1Cl [Crizotinib (PF-02341066)]
cell viability (kinase inhibitor library screening) ([1]; IGR37 Parental, 1μΜ, 72 h): 93.8% | cell viability (kinase inhibitor library screening) ([1]; IGR37 Parental, 10μΜ, 72 h): 8.1% | cell viability (kinase inhibitor library screening) ([2]; 501Mel GP, 1μΜ, 72 h): 80.0% | cell viability (kinase inhibitor library screening) ([2]; 501Mel GP, 10μΜ, 72 h): -0.355% | cell viability (kinase inhibitor library screening) ([3]; A375 XP, 1μΜ, 72 h): 99.3% | cell viability (kinase inhibitor library screening) ([3]; A375 XP, 10μΜ, 72 h): 17.2% | cell viability (kinase inhibitor library screening) ([4]; A375 Parental, 10μΜ, 72 h): 20.5% | cell viability (kinase inhibitor library screening) ([4]; A375 Parental, 1μΜ, 72 h): 98.4% | cell viability (kinase inhibitor library screening) ([5]; IGR37 GP, 1μΜ, 72 h): 97.3% | cell viability (kinase inhibitor library screening) ([5]; IGR37 GP, 10μΜ, 72 h): 6.1% | cell viability (kinase inhibitor library screening) ([6]; A375 GP, 1μΜ, 72 h): 94.9% | cell viability (kinase inhibitor library screening) ([6]; A375 GP, 10μΜ, 72 h): 14.4% | cell viability (kinase inhibitor library screening) ([7]; 501Mel XP, 1μΜ, 72 h): 62.4% | cell viability (kinase inhibitor library screening) ([7]; 501Mel XP, 10μΜ, 72 h): -0.46% | cell viability (kinase inhibitor library screening) ([8]; IGR37 XP, 1μΜ, 72 h): 100.4% | cell viability (kinase inhibitor library screening) ([8]; IGR37 XP, 10μΜ, 72 h): 1.5% | cell viability (kinase inhibitor library screening) ([9]; 501Mel Parental, 1μΜ, 72 h): 97.3% | cell viability (kinase inhibitor library screening) ([9]; 501Mel Parental, 10μΜ, 72 h): 0.235%

N#CCNC(=O)c1ccc(-c2ccnc(Nc3ccc(N4CCOCC4)cc3)n2)cc1 [Cyt387]
viability at 1 µM [1]: 103% | viability at 10 µM [1]: 86.1% | viability at 1 µM ([2]; 72 h): 105% | viability at 10 µM ([2]; 72 h): 50.6% | viability at 1 µM [3]: 95.8% | viability at 10 µM [3]: 64.7% | viability at 1 µM [4]: 99.6% | viability at 10 µM [4]: 48.4% | viability at 1 µM [5]: 94.2% | viability at 10 µM [5]: 25.5% | viability at 1 µM [6]: 94.4% | viability at 10 µM [6]: 43.9% | viability at 1 µM ([7]; 72 h): 115% | viability at 10 µM ([7]; 72 h): 35.8% | viability at 1 µM [8]: 106% | viability at 10 µM [8]: 11.7% | viability at 1 µM ([9]; 72 h): 101% | viability at 10 µM ([9]; 72 h): 60.8%
